Like-named read-outs stand apart in the source and are kept apart here.
Key:
[1] = in vivo; conditions: mouse, mice
[2] = Solubility; type: physicochemical; conditions: common organic solvents
[3] = system: carragenin-induced edema; assay: Carragenin-induced edema test (Winter); type: in vivo, rat
Protocol: This effect was measured with an experimental model reproducing acute inflammation in rats: the carragenin-induced edema test according to C.

[4] = system: rat platelet-rich plasma (ADP-induced platelet aggregation); assay: Anti-platelet aggregation activity in vitro (Born's method), rat platelet-rich plasma, ADP-induced; type: cell-based
Protocol: Preparations (A), (B), (C), (D), (E) and (F) were administered "in vivo" orally and/or parenterally in 0.5% carboxymethylcellulose suspensions in physiological saline at neutral pH. When tested "in vitro", they were finely dispersed in neutral pH physiological saline.
This was studied "in vitro" following Born's method (Born G. W. R., Nature, 194, 937 (1962)) and inducing platelet aggregation with ADP.
Platelet-rich plasma was obtained by centrifugation for 10 minutes at 2,000 rpm of 9 parts rat blood to 1 part 3.13% sodium citrate solution. In performing the aggregation test, 0.2 ml of platelet rich plasm was mixed with a 0.9% NaCl solution to which the test substance was added to a final volume of 0.6 ml; the resulting mixture was incubated at 27° C. for 3 minutes. After inducement with ADP, aggregation was measured continuously with an Elvi 840 Aggregometer (Elvi Logos-Milan) to follow its course. The anti-aggregant effects were determined from the difference in the light transmission of the sample with respect to an ADP control.
Table I reports the platelet aggregation inhibition using different doses of the test compounds at a constant ADP concentration.

[5] = system: human platelet aggregation (PRP); assay: Human platelet aggregation in vitro induced by ADP, adrenalin, collagen or arachidonate; type: cell-based; conditions: Homo sapiens
Protocol: Blood samples (20 ml) were obtained by venal puncture of the antecubital fossa using plastic syringes containing trisodium citrate as anticoagulant (final concentration 0.19% w/v). Platelet rich plasma (PRP) was harvested after slow centrifugation at 170 g for 12 min. and 0.2 ml aliquots were dispensed into plastic cuvettes and stored at room temperature throughout the experiment.
Aliquots of 0.2 ml PRP from each sample were treated with ADP, adrenalin, collagen or arachidonate, until the threshold concentrations of these aggregating agents had been reached. The threshold concentration is defined as the minimum whcih will produce irreversible aggregation. Once established, the threshold concentration was used to challenge test samples of each of the 2 test compounds or vehicle (DMSO) which had been incubated for 1 min. at 37 C. in the holding cell of the agregometer, prior to addition of the aggregating agent.
This was reported as the final concentration in the PRP after addition of 2.5-10 ul of test substance.

[6] = in vivo; conditions: rat, rats
[7] = system: gastric mucosa; assay: Gastric tolerance (ulcerogenic activity); type: in vivo, male Wistar rats; conditions: 4 days; for Mean Severity: scale 0-5; for Gastric Damage index: vehicle 8
Protocol: This was studied by conducting tests of ulcerogenic activity in male Wistar rats, weighing 180 g on the average, in groups of 10 animals each. Three doses of each substance were given, and one group of animals was treated with vehicle only in a volume of 10 ml/kg bodyweight. Each dose was given orally for four consecutive days; on the fifth day, the rats were killed and autopsied. The ulcerogenic effect was assessed according to the following scale:
(1) each hemorrhage point ≥1 mm was evaluated as 1 lesion
(2) hemorrhage points smaller than 1 mm were counted as follows:
(b) from 1 to 19:2 lesions
(c) from 1 to 29:3 lesions
(2) gastric mucosa irritation: 1
(3) hemorrahge points <1 mm: 2
(4) hemorrhage points between 1 and 3 mm: 3
(5) hemorrhage points >3 mm: 4
This scale was used to calculate the following gastric damage index: [formula]

[8] = ADP 2 μmol/l, dose 1 V/ml (Table II)
[9] = ADP 5 μmol/l, dose 1 V/ml (Table II)
[10] = ADP 7.08 μmol/l, dose 1 /ml (Table I)
[11] = ADP 7.08 μmol/l, dose 2,5 /ml (Table I)
[12] = ADP 7.08 μmol/l, dose 5 /ml (Table I)

## Cc1ccc(C(=O)c2ccc(CC(=O)OCCn3cnc4c3c(=O)n(C)c(=O)n4C)n2C)cc1 [(A), 1-Methyl-5-p-methylbenzoylpyrrol-2-acetate of 7-(2-oxyethyl)theophylline]
[1]; ip, I.P.
  LD50: 950 mg/kg
[1]; po, OS
  LD50: 1270 mg/kg
[2]
  Solubility: Soluble in common organic solvents
[3]; I.P., 10 mg/kg, 3 h
  % Edema Inhibition: 35,0%
[3]; I.P., 10 mg/kg, 6 h
  % Edema Inhibition: 26,0%
[3]; I.P., 10 mg/kg, 24 h
  % Edema Inhibition: 0,0%
[3]; I.P., 50 mg/kg, 3 h
  % Edema Inhibition: 54,0%
[3]; I.P., 50 mg/kg, 6 h
  % Edema Inhibition: 40,0%
[3]; I.P., 50 mg/kg, 24 h
  % Edema Inhibition: 0,0%
[3]; I.P., 100 mg/kg, 3 h
  % Edema Inhibition: 65,0%
[3]; I.P., 100 mg/kg, 6 h
  % Edema Inhibition: 56,1%
[3]; I.P., 100 mg/kg, 24 h
  % Edema Inhibition: 0,0%
[3]; OS, 10 mg/kg, 3 h
  % Edema Inhibition: 34,6%
[3]; OS, 10 mg/kg, 6 h
  % Edema Inhibition: 22,2%
[3]; OS, 10 mg/kg, 24 h
  % Edema Inhibition: 0,0%
[3]; OS, 50 mg/kg, 3 h
  % Edema Inhibition: 52,0%
[3]; OS, 50 mg/kg, 6 h
  % Edema Inhibition: 41,1%
[3]; OS, 50 mg/kg, 24 h
  % Edema Inhibition: 0,0%
[3]; OS, 100 mg/kg, 3 h
  % Edema Inhibition: 62,0%
[3]; OS, 100 mg/kg, 6 h
  % Edema Inhibition: 57,3%
[3]; OS, 100 mg/kg, 24 h
  % Edema Inhibition: 10,0%
[4]; [8]
  % Inhibition: 42%
[4]; [9]
  % Inhibition: 30%
[4]; [10]
  % Inhibition: 25%
[4]; [11]
  % Inhibition: 100%
[4]; [12]
  % Inhibition: 100%
[5]; ATH-8, 1 min, ADP, volunteer 3, read-out: Minimum Effective Concentration (Final in PRP)
  minimal effective concentration: 100 µM
[5]; ATH-8, 1 min, Adrenalin, volunteer 3, read-out: Minimum Effective Concentration (Final in PRP)
  minimal effective concentration: 10 µM
[5]; ATH-8, 1 min, Arachidonate, volunteer 3, read-out: Minimum Effective Concentration (Final in PRP)
  minimal effective concentration: 250 µM
[5]; ATH-8, 1 min, Collagen, volunteer 3, read-out: Minimum Effective Concentration (Final in PRP)
  minimal effective concentration: 700 µM
[5]; Platelet, 1 min, ADP, volunteer 1, read-out: Minimum Effective Concentration (Final in PRP)
  minimal effective concentration: 10 µM
[5]; Platelet, 1 min, ADP, volunteer 2 (donor gamma), read-out: Minimum Effective Concentration (Final in PRP)
  minimal effective concentration: 10 µM
[5]; Platelet, 1 min, Adrenalin, range over 3 volunteers, read-out: Minimum Effective Concentration Range
  minimal effective concentration: 10 µM
[5]; Platelet, 1 min, Adrenalin, volunteer 1, read-out: Minimum Effective Concentration (Final in PRP)
  minimal effective concentration: 10 µM
[5]; Platelet, 1 min, Adrenalin, volunteer 2 (donor gamma), read-out: Minimum Effective Concentration (Final in PRP)
  minimal effective concentration: 10 µM
[5]; Platelet, 1 min, Arachidonate, volunteer 1, read-out: Minimum Effective Concentration (Final in PRP)
  minimal effective concentration: 100 µM
[5]; Platelet, 1 min, Arachidonate, volunteer 2 (donor gamma), read-out: Minimum Effective Concentration (Final in PRP)
  minimal effective concentration: 10 µM
[5]; Platelet, 1 min, Collagen, volunteer 1, read-out: Minimum Effective Concentration (Final in PRP)
  minimal effective concentration: 100 µM
[5]; Platelet, 1 min, Collagen, volunteer 2 (donor gamma), read-out: Minimum Effective Concentration (Final in PRP)
  minimal effective concentration: 550 µM
[6]; ip, I.P.
  LD50: 800 mg/kg
[6]; po, OS
  LD50: 1150 mg/kg
[7]; 50 mg/kg oral
  % incidence 10: 6 %/10
  Gastric Damage index, second figure (after +; difference from vehicle): 1
  Mean No. lesions: 1
  Mean Severity: 2
  Gastric Damage index: 9
[7]; 100 mg/kg oral
  % incidence 10: 8 %/10
  Gastric Damage index, second figure (after +; difference from vehicle): 4
  Mean No. lesions: 2
  Mean Severity: 2
  Gastric Damage index: 12
[7]; 200 mg/kg oral
  % incidence 10: 8 %/10
  Gastric Damage index, second figure (after +; difference from vehicle): 6
  Mean No. lesions: 3
  Mean Severity: 3
  Gastric Damage index: 14

## Cc1cc(CC(=O)OCCn2cnc3c2c(=O)n(C)c(=O)n3C)n(C)c1C(=O)c1ccc(Cl)cc1 [(B), 1,4-Dimethyl-5-p-chlorobenzoylpyrrol-2-acetate of 7-(2-oxyethyl)theophylline]
[1]; ip, I.P.
  LD50: 140 mg/kg
[1]; po, OS
  LD50: 160 mg/kg
[2]
  Solubility: Soluble in common organic solvents
[3]; I.P., 5 mg/kg, 3 h
  % Edema Inhibition: 65,2%
[3]; I.P., 5 mg/kg, 6 h
  % Edema Inhibition: 60,5%
[3]; I.P., 5 mg/kg, 24 h
  % Edema Inhibition: 10,5%
[3]; I.P., 10 mg/kg, 3 h
  % Edema Inhibition: 70,6%
[3]; I.P., 10 mg/kg, 6 h
  % Edema Inhibition: 71,3%
[3]; I.P., 10 mg/kg, 24 h
  % Edema Inhibition: 15,0%
[3]; I.P., 2,5 mg/kg, 3 h
  % Edema Inhibition: 52,0%
[3]; I.P., 2,5 mg/kg, 6 h
  % Edema Inhibition: 50,0%
[3]; I.P., 2,5 mg/kg, 24 h
  % Edema Inhibition: 5,1%
[3]; OS, 5 mg/kg, 3 h
  % Edema Inhibition: 66,0%
[3]; OS, 5 mg/kg, 6 h
  % Edema Inhibition: 60,0%
[3]; OS, 5 mg/kg, 24 h
  % Edema Inhibition: 12,0%
[3]; OS, 10 mg/kg, 3 h
  % Edema Inhibition: 73,0%
[3]; OS, 10 mg/kg, 6 h
  % Edema Inhibition: 70,3%
[3]; OS, 10 mg/kg, 24 h
  % Edema Inhibition: 20,0%
[3]; OS, 2,5 mg/kg, 3 h
  % Edema Inhibition: 56,4%
[3]; OS, 2,5 mg/kg, 6 h
  % Edema Inhibition: 53,0%
[3]; OS, 2,5 mg/kg, 24 h
  % Edema Inhibition: 10,0%
[4]; [8]
  % Inhibition: 31%
[4]; [9]
  % Inhibition: 25%
[4]; [10]
  % Inhibition: 20%
[4]; [11]
  % Inhibition: 70%
[4]; [12]
  % Inhibition: 90%
[6]; ip, I.P.
  LD50: 100 mg/kg
[6]; po, OS
  LD50: 150 mg/kg
[7]; 5 mg/kg oral
  % incidence 10: 8 %/10
  Gastric Damage index, second figure (after +; difference from vehicle): 5
  Mean No. lesions: 2,5
  Mean Severity: 2,5
  Gastric Damage index: 13
[7]; 10 mg/kg oral
  % incidence 10: 9 %/10
  Gastric Damage index, second figure (after +; difference from vehicle): 8
  Mean No. lesions: 3
  Mean Severity: 4
  Gastric Damage index: 16
[7]; 2,5 mg/kg oral
  % incidence 10: 7 %/10
  Gastric Damage index, second figure (after +; difference from vehicle): 2
  Mean No. lesions: 1
  Mean Severity: 2
  Gastric Damage index: 10
